According to patent publication US10150764B2, “Substituted benzene compounds” (Epizyme, Inc., priority 2013, dated 2018):
Where a name gives a salt, the structure may show the parent alone.

Assays:
[1] = target: EZH2 Y641F mutant (PRC2 enzyme) (Homo sapiens (Human), UniProt Q15910, Y641F); assay: PRC2 enzyme assay on peptide substrate, EZH2 Y641F mutant (H3K27me2 peptide, 3H-SAM Flashplate); format: biochemical; conditions: Y641F mutant PRC2 4 nM
Experimental: (§1) Human PRC2 enzymes were purified as 4-component enzyme complexes co-expressed in Spodoptera frugiperda (sf9) cells using a baculovirus expression system. […] The EED subunit contained an N-terminal FLAG tag that was used to purify the entire 4-component complex from sf9 cell lysates.
(§2) The assays were all performed in a buffer consisting of 20 mM bicine (pH=7.6), 0.5 mM DTT, 0.005% BSG and 0.002% Tween20, prepared on the day of use. […] DMSO (1 μL) was added to columns 11, 12, 23, 24, rows A-H for the maximum signal control, and SAH, a known product and inhibitor of PRC2 (1 μL) was added to columns 11, 12, 23, 24, rows I-P for the minimum signal control. A cocktail (40 μL) containing the wild-type PRC2 enzyme and H3K27me0 peptide or any of the Y641 mutant enzymes and H3K27me2 peptide was added by Multidrop Combi (Thermo). The compounds were allowed to incubate with PRC2 for 30 min at 25° C., then a cocktail (10 μL) containing a mixture of non-radioactive and ^3H-SAM was added to initiate the reaction (final volume=51 μL). […] The assays were stopped by the addition of non-radioactive SAM (10 μL) to a final concentration of 600 μM, which dilutes the ^3H-SAM to a level where its incorporation into the peptide substrate is no longer detectable. 50 of the reaction in the 384-well polypropylene plate was then transferred to a 384-well Flashplate and the biotinylated peptides were allowed to bind to the streptavidin surface for at least 1 h before being washed three times with 0.1% Tween20 in a Biotek ELx405 plate washer. The plates were then read in a PerkinElmer TopCount platereader to measure the quantity of ^3H-labeled peptide bound to the Flashplate surface, measured as disintegrations per minute (dpm) or alternatively, referred to as counts per minute (cpm).

[2] = target: wild-type EZH2 (PRC2 enzyme) (Homo sapiens (Human), UniProt Q15910); assay: PRC2 enzyme assay on peptide substrate, wild-type EZH2 (H3K27me0 peptide, 3H-SAM Flashplate); format: biochemical; conditions: wild-type PRC2 4 nM, read-out: WT EZH2 IC50
Sequence of wild-type EZH2 (PRC2 enzyme) (Q15910 whole entry): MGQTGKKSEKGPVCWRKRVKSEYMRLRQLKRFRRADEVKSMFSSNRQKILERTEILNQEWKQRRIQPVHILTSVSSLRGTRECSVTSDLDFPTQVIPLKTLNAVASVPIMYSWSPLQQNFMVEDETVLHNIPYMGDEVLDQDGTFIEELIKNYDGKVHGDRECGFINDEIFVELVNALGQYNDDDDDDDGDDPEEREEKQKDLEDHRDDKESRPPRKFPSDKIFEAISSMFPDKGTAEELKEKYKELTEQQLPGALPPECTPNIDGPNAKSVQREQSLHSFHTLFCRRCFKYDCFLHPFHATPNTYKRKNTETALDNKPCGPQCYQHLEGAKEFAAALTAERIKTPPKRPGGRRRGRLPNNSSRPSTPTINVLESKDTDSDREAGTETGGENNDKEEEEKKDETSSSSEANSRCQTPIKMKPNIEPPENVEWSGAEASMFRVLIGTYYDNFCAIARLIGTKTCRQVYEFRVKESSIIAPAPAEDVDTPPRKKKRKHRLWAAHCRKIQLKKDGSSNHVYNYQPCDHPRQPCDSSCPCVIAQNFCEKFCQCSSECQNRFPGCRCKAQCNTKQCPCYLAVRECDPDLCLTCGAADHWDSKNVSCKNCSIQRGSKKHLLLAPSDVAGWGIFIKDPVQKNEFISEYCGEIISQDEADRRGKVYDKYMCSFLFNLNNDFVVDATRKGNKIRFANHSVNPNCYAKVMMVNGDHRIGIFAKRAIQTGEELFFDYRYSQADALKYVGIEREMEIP
Sequence of wild-type EZH2 (PRC2 enzyme) (O75530 whole entry partner): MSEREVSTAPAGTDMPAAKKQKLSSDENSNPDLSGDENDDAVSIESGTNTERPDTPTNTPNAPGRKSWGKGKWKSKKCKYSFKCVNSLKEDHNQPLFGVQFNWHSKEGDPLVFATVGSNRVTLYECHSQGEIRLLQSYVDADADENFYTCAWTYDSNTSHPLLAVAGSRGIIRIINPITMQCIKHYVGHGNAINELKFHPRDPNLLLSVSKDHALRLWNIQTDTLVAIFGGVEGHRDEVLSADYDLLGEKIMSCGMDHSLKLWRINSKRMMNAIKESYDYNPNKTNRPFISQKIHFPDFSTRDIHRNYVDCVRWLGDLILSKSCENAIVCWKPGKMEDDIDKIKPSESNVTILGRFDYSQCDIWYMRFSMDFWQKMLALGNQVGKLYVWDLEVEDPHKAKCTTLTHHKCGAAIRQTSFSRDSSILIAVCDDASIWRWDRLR
Sequence of wild-type EZH2 (PRC2 enzyme) (Q15022 whole entry partner): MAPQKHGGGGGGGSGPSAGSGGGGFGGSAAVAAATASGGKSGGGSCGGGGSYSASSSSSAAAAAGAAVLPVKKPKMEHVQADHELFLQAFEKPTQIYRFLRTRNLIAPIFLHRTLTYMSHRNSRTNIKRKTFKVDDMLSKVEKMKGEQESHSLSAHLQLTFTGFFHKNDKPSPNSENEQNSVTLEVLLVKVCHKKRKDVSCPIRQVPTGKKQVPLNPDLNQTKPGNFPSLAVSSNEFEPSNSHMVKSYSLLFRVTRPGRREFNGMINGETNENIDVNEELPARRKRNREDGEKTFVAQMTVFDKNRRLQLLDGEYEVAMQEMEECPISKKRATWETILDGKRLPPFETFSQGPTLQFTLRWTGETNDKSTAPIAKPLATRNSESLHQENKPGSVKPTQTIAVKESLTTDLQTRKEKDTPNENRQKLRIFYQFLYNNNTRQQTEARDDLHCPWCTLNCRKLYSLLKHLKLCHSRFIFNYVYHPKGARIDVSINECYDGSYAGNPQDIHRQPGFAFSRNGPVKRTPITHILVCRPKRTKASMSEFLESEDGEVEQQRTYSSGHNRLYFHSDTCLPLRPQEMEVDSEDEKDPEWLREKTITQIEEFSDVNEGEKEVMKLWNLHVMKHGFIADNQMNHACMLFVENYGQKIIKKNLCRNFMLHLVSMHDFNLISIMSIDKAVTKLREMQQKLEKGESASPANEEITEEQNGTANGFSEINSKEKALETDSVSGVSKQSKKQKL
Sequence of wild-type EZH2 (PRC2 enzyme) (Q09028 whole entry partner): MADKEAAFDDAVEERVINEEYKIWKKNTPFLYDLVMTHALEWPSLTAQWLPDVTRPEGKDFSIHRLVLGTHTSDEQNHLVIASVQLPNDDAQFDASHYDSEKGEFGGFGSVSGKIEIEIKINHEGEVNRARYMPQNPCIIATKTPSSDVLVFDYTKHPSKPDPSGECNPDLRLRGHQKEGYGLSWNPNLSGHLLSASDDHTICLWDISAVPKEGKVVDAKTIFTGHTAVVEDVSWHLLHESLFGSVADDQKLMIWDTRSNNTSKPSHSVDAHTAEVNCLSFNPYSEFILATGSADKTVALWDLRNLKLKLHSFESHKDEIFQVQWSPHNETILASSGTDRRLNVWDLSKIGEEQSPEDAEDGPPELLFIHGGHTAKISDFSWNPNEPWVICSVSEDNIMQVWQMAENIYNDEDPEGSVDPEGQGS
Experimental: as §1, §2

Sequence of EZH2 Y641F mutant (PRC2 enzyme) (Q15910 whole entry Y641F): as the sequence (Q15910 whole entry) above, with Y641F counted along it
Sequence of EZH2 Y641F mutant (PRC2 enzyme) (O75530 whole entry partner): as the sequence (O75530 whole entry partner) above
Sequence of EZH2 Y641F mutant (PRC2 enzyme) (Q15022 whole entry partner): as the sequence (Q15022 whole entry partner) above
Sequence of EZH2 Y641F mutant (PRC2 enzyme) (Q09028 whole entry partner): as the sequence (Q09028 whole entry partner) above

| Structure (SMILES) | IC50 [1] [µM] | IC50 [2] [µM] |
| --- | --- | --- |
| CCN(c1cc(-c2ccc(CN3CCOCC3)cc2)cc(C(=O)NCc2c(OC)nn(C)c2C)c1C)[C@H]1CC[C@H](N(C)C)CC1 [Compound 53, 5-(((trans)-4-(dimethylamino)cyclohexyl) (ethyl)amino)-N-((3-methoxy-1,5-dimethyl-1H-pyrazol-4-yl)methyl)-4-methyl-4′-(morpholinomethyl)-[1,1′-biphenyl]-3-carboxamide] | 0.625 | 2.18 |
| CCN(c1cc(Cl)cc(C(=O)NCc2c(C)nc3cc[nH]n3c2=O)c1C)[C@H]1CC[C@H](N(C)C)CC1 [Compound 8, 5-chloro-3-(((trans)-4-(dimethylamino)cyclohexyl)(ethyl)amino)-2-methyl-N-((5-methyl-7-oxo-1,7-dihydropyrazolo[1,5-a]pyrimidin-6-yl)methyl)benzamide] | 5.82 | 20 |
| CCN(c1cc(Cl)cc(C(=O)NCc2c(C)n(C)[nH]c2=O)c1C)C1CCN(CCOC)CC1 [Compound 77, 5-chloro-N-((1,5-dimethyl-3-oxo-2,3-dihydro-1H-pyrazol-4-yl)methyl)-3-(ethyl(1-(2-methoxyethyl)piperidin-4-yl)amino)-2-methylbenzamide] | 4.69 | 12.6 |
| CCN(c1cc(Cl)cc(C(=O)NCc2c(N3CCCCC3)nn(C)c2OC)c1C)[C@H]1CC[C@H](N(C)C)CC1 [Compound 94, 5-chloro-3-(((trans)-4-(dimethylamino)cyclohexyl)(ethyl)amino)-N-((5-methoxy-1-methyl-3-(piperidin-1-yl)-1H-pyrazol-4-yl)methyl)-2-methylbenzamide] | > 50 | > 50 |
| CCN(c1cc(Cl)cc(C(=O)NCc2c(OC)nn(C)c2C)c1C)C1CCN(CCc2cccc(OC)c2)CC1 [Compound 78, 5-chloro-3-(ethyl(1-(3-methoxyphenethyl)piperidin-4-yl)amino)-N-((3-methoxy-1,5-dimethyl-1H-pyrazol-4-yl)methyl)-2-methylbenzamide] | 4.26 | 17.6 |
| CCN(c1cc(Cl)cc(C(=O)NCc2c(C(F)(F)F)nn(C)c2OC)c1C)[C@H]1CC[C@H](N(C)C)CC1 [Compound 88, 5-chloro-3-(ethyl((trans)-4-(dimethylamino)cyclohexyl)amino)-N-((5-methoxy-1-methyl-3-(trifluoromethyl)-1H-pyrazol-4-yl)methyl)-2-methylbenzamide] | 46.4 | > 50 |
| CCN(c1cc(Cl)cc(C(=O)NCc2c(OC)nn(C)c2C)c1C)[C@H]1CC[C@H](N(C)Cc2cccc(OCCOC)c2)CC1 [Compound 68, 5-chloro-3-(ethyl((trans)-4-((3-(2-methoxyethoxy)benzyl)(methyl)amino)cyclohexyl)amino)-N-((3-methoxy-1,5-dimethyl-1H-pyrazol-4-yl)methyl)-2-methylbenzamide] |  | 2.59 |
| CCN(c1cc(Cl)cc(C(=O)NCc2c(C)nn(C)c2OC)c1C)[C@@H]1COC[C@H]1OCCOC (relative stereo) [Compound 44, 5-chloro-3-(ethyl((trans)-4-(2-methoxyethoxy)tetrahydrofuran-3-yl)amino)-N-((5-methoxy-1,3-dimethyl-1H-pyrazol-4-yl)methyl)-2-methylbenzamide] |  | > 50 |
| CCN(c1cc(Cl)cc(C(=O)NCc2c(C(F)(F)F)[nH]n(C)c2=O)c1C)[C@H]1CC[C@H](N(C)C)CC1 [Compound 89, 5-chloro-3-(ethyl((trans)-4-(dimethylamino)cyclohexyl)amino)-2-methyl-N-((2-methyl-3-oxo-5-(trifluoromethyl)-2,3-dihydro-1H-pyrazol-4-yl)methyl)benzamide] | > 50 | > 50 |
| CCn1nc(OC)c(CNC(=O)c2cc(Cl)cc(N(CC)[C@H]3CC[C@H](N(C)CCOC)CC3)c2C)c1C [Compound 64, 5-chloro-3-(ethyl ((trans)-4-((2-methoxyethyl)-(methyl)-amino)-cyclohexyl)amino)-N-((1-ethyl-3-methoxy-5-methyl-1H-pyrazol-4-yl)methyl)-2-methylbenzamide] | 4.48 | 17.5 |
| CCN(c1cc(Cl)cc(C(=O)NCc2c(C)n(C)[nH]c2=O)c1C)[C@H]1CC[C@H](N(C)C(C)c2cccnc2)CC1 (stereo partly drawn) [Compound 73, 5-chloro-N-((1,5-dimethyl-3-oxo-2,3-dihydro-1H-pyrazol-4-yl)methyl)-3-(ethyl((trans)-4-(methyl(1-(pyridin-3-yl)ethyl)amino)cyclohexyl)amino)-2-methylbenzamide] | 0.149 | 1.29 |
| CCN(c1cc(Cl)cc(C(=O)NCc2c(OC)nn3cccnc23)c1C)[C@H]1CC[C@H](N(C)C)CC1 [Compound 50, 5-chloro-3-(((trans)-4(dimethylamino)cyclohexyl)(ethyl)amino)-N-((2-methoxypyrazolo[1,5-a]pyrimidin-3-yl)methyl)-2-methylbenzamide] | 2.71 | 27.6 |
| CCN(c1cc(Cl)cc(C(=O)NCc2c(C)n(C)[nH]c2=O)c1C)C1CCN(CCc2cccc(OC)c2)CC1 [Compound 79, 5-chloro-N-((1,5-dimethyl-3-oxo-2,3-dihydro-1H-pyrazol-4-yl)methyl)-3-(ethyl(1-(3-methoxyphenethyl)piperidin-4-yl)amino)-2-methylbenzamide] | 0.1 | 0.485 |
| CCCCc1[nH]n(C)c(=O)c1CNC(=O)c1cc(Cl)cc(N(CC)[C@H]2CC[C@H](N(C)C)CC2)c1C [Compound 40, N-((5-butyl-2-methyl-3-oxo-2,3-dihydro-1H-pyrazol-4-yl)methyl)-5-chloro-3-(((trans)-4-(dimethylamino)cyclohexyl)(ethyl)amino)-2-methylbenzamide] | 0.166 | 0.689 |
| CCN(c1cc(Cl)cc(C(=O)NCc2c(C)[nH]n(C(C)C)c2=O)c1C)[C@H]1CC[C@H](N(C)C)CC1 [Compound 37, 5-chloro-3-(((trans)-4-(dimethylamino)cyclohexyl)(ethyl)amino)-N-((2-isopropyl-5-methyl-3-oxo-2,3-dihydro-1H-pyrazol-4-yl)methyl)-2-methylbenzamide] | 2.67 | 15.6 |
| CCN(c1cc(Cl)cc(C(=O)NCc2c(SC)n(C)[nH]c2=O)c1C)[C@H]1CC[C@H](N(C)C)CC1 [Compound 31b, 5-chloro-3-{ethyl[(trans)-4-(dimethylamino)cyclohexyl]amino}-2-methyl-N-{[1-methyl-5-(methylsulfanyl)-3-oxo-2,3-dihydro-1H-pyrazol-4-yl]methyl}benzamide Formate] | 1.07 | 1.24 |
| CCN(c1cc(Cl)cc(C(=O)NCc2c(C)[nH]n(C)c2=O)c1C)[C@@H]1COC[C@H]1OCCOC (relative stereo) [Compound 45, 5-chloro-N-((2,5-dimethyl-3-oxo-2,3-dihydro-1H-pyrazol-4-yl)methyl)-3-(ethyl((trans)-4-(2-methoxyethoxy)tetrahydrofuran-3-yl)amino)-2-methylbenzamide] | > 50 | > 50 |
| CCN(c1cc(Cl)cc(C(=O)NCc2c(C)cc3nc(C)[nH]n3c2=O)c1C)[C@H]1CC[C@H](N(C)C)CC1 [Compound 9, 5-chloro-N-((2,7-dimethyl-5-oxo-3,5-dihydro-[1,2,4]triazolo[1,5-a]pyridin-6-yl)methyl)-3-(((trans)-4-(dimethylamino)cyclohexyl)(ethyl)amino)-2-methylbenzamide] | 11.5 | 34.5 |
